Reference: US20240228434A1, “PRODRUGS OF KV7 CHANNEL OPENERS” (Xyzagen, Inc., priority 2021, published 2024)

Experiments:
[1] = Drug concentration in plasma and brain after Compound 28 IP; details: CF-1 mice, 30 minutes
[2] = Rat PK at equimolar dose to Ezogabine (20 mg/kg) in 0.5% methylcellulose; details: for Exposure of ezogabine (dose normalized AUC) compared with ezogabine itself: rats, equimolar dose to Ezogabine 20 mg/kg
Experimental: (§1) Blood samples were collected at the same time points over 24 hours to generate a concentration time profile. Two male rats were dosed per group. Plasma samples were analyzed by LC/MS/MS and the resulting concentration time profiles and PK parameters are provided.
as §1, §1

MES induced seizures [3] = assay: Maximal electroshock assay of Compound 28, IP; assay type: in vivo, CF-1 mice; details: for Animals protected from MES induced seizures: 30 minutes after administration
[4] = Acid and organic solution stability, HPLC-UV 250 nm; details: 5 mg/mL; for Degradation / conversion to ezogabine in solution (summary): up to 3 weeks
Experimental: An HPLC-UV Vis method was developed using 0.1% Formic acid in water as mobile phase A and 0.1% Formic acid in acetonitrile as mobile Phase B. A gradient method was developed ramping from 10% A to 90% B over 8 minutes and then returning to 10% A at 8.5 minutes on a 4.6×50 mm Zorbax C-18 column. Injections of 10 uL of stability solutions were injected for analyte detection.
[…] Aliquots were collected at serial time points and then diluted to a nominal concentration of 100 ug/mL for injection to the HPLC and 250 nm monitored by the diode array detector. Data at approximately 10 days is presented.
Aliquots were collected at serial time points and then diluted to a nominal concentration of 100 ug/mL for injection to the HPLC and 250 nm monitored by the diode array detector.
(§2) It was also evaluated at 2 N HCl at 37° C. Aliquots were collected at serial time points and then diluted to a nominal concentration of 100 ug/mL for injection to the HPLC and 250 nm monitored by the diode array detector.
as §2, §2, §2

[5] = Plasma and brain concentration after oral Compound 29; details: oral 30 mg/kg Compound 29, 0.25, 0.5 and 1 h
Text: (§3) Each male CF-1 mouse provided one data point in the MES assay and one data point in the concentration analysis. There were 8 mice per time point.

MES induced seizures [6] = assay: Mouse maximal electroshock (MES) assay of Compound 29, oral; assay type: in vivo, CF-1 mouse; details: oral 30 mg/kg; 0.25, 0.5 and 1 h
Text: as §3

[7] = male jugular vein cannulated rats, dose equimolar to Ezogabine 20 mg/kg, 0.5% methylcellulose in water, 24 hours, analyte the dosed prodrug
[8] = male jugular vein cannulated rats, dose equimolar to Ezogabine 20 mg/kg, 0.5% methylcellulose in water, analyte the dosed prodrug

Structure (SMILES): CCOC(=O)Nc1ccc(NCc2ccc(F)cc2)cc1NC(=O)C[C@@H](CN)CC(C)C [Compound 28]
- Concentration of the prodrug compared with ezogabine [1]: present at higher concentrations than ezogabine
- AUClast/D [2, 7]: 83.0 ng·h/mL/mg/kg
- Cmax/D [2, 8]: 9.31 ng/mL/mg/kg
- Exposure of ezogabine (dose normalized AUC) compared with ezogabine itself [2]: lower exposure
- Animals protected from MES induced seizures (MES induced seizures [3]; IP 12 mg/kg): 1 of 9
- Animals protected from MES induced seizures (MES induced seizures [3]; IP 24 mg/kg): 3 of 9
- Protection against MES induced seizures, dose response (MES induced seizures [3]; IP 1.5, 3, 6, 12 and 24 mg/kg): None of the doses showed complete protection
- Degradation / conversion to ezogabine in solution (summary) [4]: degradation to ezogabine with increasing strength of the acidic solution
- Ezogabine Area ([4]; 0.1N HCl, room temp., normal light, 440 h): 0 mAU
- Ezogabine Area ([4]; 1N HCl, room temp., normal light, 440 h): 568 mAU
- Ezogabine Area ([4]; 2N HCl 37 C., 440 h): 3593 mAU
- Ezogabine Area ([4]; 2N HCl, room temp., normal light, 440 h): 1462 mAU
- Appearance of the stability solution ([4]; 11 days): clear and colorless through Day 11
- % Remaining ([4]; 440 h): 92.0%
- Ezogabine Area ([4]; Acetonitrile, room temp., normal light, 440 h): 248 mAU
- Ezogabine Area ([4]; Methanol, room temp., normal light, 440 h): 0 mAU

Structure (SMILES): CCNC(=O)CC[C@H](N)C(=O)Nc1cc(NCc2ccc(F)cc2)ccc1NC(=O)OCC.Cl [Compound 29]
- AUClast [2, 7]: 6110 ng·h/mL
- Cmax/D ([2]; male jugular vein cannulated rats, dose equimolar to Ezogabine 20 mg/kg, 0.5% methylcellulose in water, analyte Ezogabine): 23.3 ng/mL/mg/kg
- Cmax [2, 8]: 883 ng/mL
- Cmax/D [2, 8]: 44.2 ng/mL/mg/kg
- Tmax [2, 8]: 9.6 min
- Exposure of ezogabine (dose normalized AUC) compared with ezogabine itself [2]: similar
- Exposure of ezogabine [5]: very high in plasma and was present in brain
- Pharmacological response in MES over time (MES induced seizures [6]): reduced in tandem to the decrease in brain concentrations
- Degradation / conversion to ezogabine in solution (summary) [4]: degradation under acidic conditions and also conversion to ezogabine
- Ezogabine Area ([4]; 0.1N HCl, room temp., normal light, 441 h): 0 mAU
- Ezogabine Area ([4]; 1N HCl, room temp., normal light, 441 h): 1241 mAU
- Ezogabine Area ([4]; 2N HCl 37 C., 441 h): 1755 mAU
- Ezogabine Area ([4]; 2N HCl, room temp., normal light, 441 h): 1659 mAU
- Ezogabine Area ([4]; Methanol, room temp., normal light, 441 h): 0 mAU
